Experimental data as given in patent US12290073B2, “Anti-microbial compound and methods of use” (SHENZHEN UNIVERSITY, priority 2019, dated 2025).
Where two headings read alike, the source gives them in different places.

How the values were obtained:
Assay in all cases: Anti-microbial rate of finished cotton textiles, FZ/T73023-2006 D.8 shocking method
Format in all cases: cell-based
[1] = system: Candida Albicans (C. albicans 10231); settings: finishing liquid 1.0 wt %; for killing at 1 %: Candida albicans, read-out: Anti-microbial rate (%) of cotton textiles finished with compound E (1.0 wt %), C. albicans
Text: (§1) Each of the reaction products (i.e., compound E) according to Examples 1-21 was used to prepare an anti-microbial agent (e.g., a finishing liquid), and the anti-microbial effects were different depending on compound E and conditions of use.
(§2) Remarks: 1) in the data of anti-microbial rate in Table 5: Examples 1-9 used a soaking-rolling-drying process to finish cotton fabric, where the bath ratio (i.e., the ratio of the weight of a liquid containing compound E to the weight of the cotton fabric) was 20:1, the residual liquid ratio was 90%, and the drying process was conducted at 85° C. for 30 minutes; Examples 10-18 were prepared by a soaking-high speed spinning-drying method, where the bath ratio was 20:1, the residual liquid ratio was 90%, and the drying process was conducted at 85° C. for 20 min; Examples 19-21 were prepared by a spraying-spinning-drying process with a bath ratio of 30:1, a residual liquid ratio of 85% after drying, and the drying process was conducted at 105° C. for 5 minutes.
(§3) 2) Table 5 data test method: FZ/T73023-2006 anti-microbial textiles D.8 shocking method. In addition, the inhibition zone method (FZ/T73023-2006 anti-microbial textiles—Appendix E—inhibition zone method) was used to test whether the active compound (E) was released from the finished cotton textiles, the inhibition zone test result of the 21 examples and zwitterions were 0 mm, and thus compound E was not released from the finished cotton textiles. The anti-microbial finishing agent used in the comparative experiment was zwitterion with the molecular structure
(§4) 3) The composition of the finishing liquid in Table 5 was: compound E 1.0 wt %, sodium bicarbonate 1.0 wt %, and the rest of the finishing liquid was water.

[2] = system: Staphylococcus Aureus (S. aureus, ATCC 6538); settings: for killing at 1 %: Staphylococcus aureus, ATCC6538, finishing liquid 1.0 wt %, read-out: Anti-microbial rate (%) of cotton textiles finished with compound E (1.0 wt %), S. aureus; for Anti-microbial rate (%) of cotton textiles finished with compound E (1.0 wt %), S. aureus: finishing liquid 1.0 wt %
Text: as §1, §2, §3, §4

[3] = system: Escherichia Coli (E. coli, ATCC25922); settings: for killing at 1 %: Escherichia coli, ATCC25922, finishing liquid 1.0 wt %, read-out: Anti-microbial rate (%) of cotton textiles finished with compound E (1.0 wt %), E. coli; for Anti-microbial rate (%) of cotton textiles finished with compound E (1.0 wt %), E. coli: finishing liquid 1.0 wt %
Text: as §1, §2, §3, §4

Structure (SMILES) | killing at 1 % ([1]; times of washing 0) [%] | killing at 1 % ([1]; times of washing 10) [%] | killing at 1 % ([1]; times of washing 50) [%] | killing at 1 % ([2]; times of washing 0) [%] | killing at 1 % ([2]; times of washing 10) [%] | killing at 1 % ([2]; times of washing 50) [%] | killing at 1 % ([3]; times of washing 0) [%] | killing at 1 % ([3]; times of washing 10) [%] | killing at 1 % ([3]; times of washing 50) [%] | Anti-microbial rate (%) of cotton textiles finished with compound E (1.0 wt %), C. albicans ([1]; times of washing 0) [%] | Anti-microbial rate (%) of cotton textiles finished with compound E (1.0 wt %), C. albicans ([1]; times of washing 10) [%] | Anti-microbial rate (%) of cotton textiles finished with compound E (1.0 wt %), C. albicans ([1]; times of washing 50) [%] | Anti-microbial rate (%) of cotton textiles finished with compound E (1.0 wt %), S. aureus ([2]; times of washing 0) [%] | Anti-microbial rate (%) of cotton textiles finished with compound E (1.0 wt %), S. aureus ([2]; times of washing 10) [%] | Anti-microbial rate (%) of cotton textiles finished with compound E (1.0 wt %), S. aureus ([2]; times of washing 50) [%] | Anti-microbial rate (%) of cotton textiles finished with compound E (1.0 wt %), E. coli ([3]; times of washing 0) [%] | Anti-microbial rate (%) of cotton textiles finished with compound E (1.0 wt %), E. coli ([3]; times of washing 10) [%] | Anti-microbial rate (%) of cotton textiles finished with compound E (1.0 wt %), E. coli ([3]; times of washing 50) [%]
CCCCCCCCCCCCCC[n+]1ccn(CCCNc2nc(C)nc(Cl)n2)c1 [Example 7] | 99.9 | 99.9 | 98.6 | 100 | 99.9 | 99.9 | 100 | 99.9 | 99.9 |  |  |  |  |  |  |  |  | 
C[n+]1ccn(CCCCCCCCCCCCCCCCCCOc2nc(Cl)nc(Cl)n2)c1 [Example 13] | 99.9 | 99.9 | 98.9 | 100 | 99.9 | 99.9 | 100 | 99.9 | 99.5 |  |  |  |  |  |  |  |  | 
C[N+](C)(C)COc1nc(Cl)nc(Cl)n1 [Example 5] | 99.9 | 99.9 | 97.9 | 100 | 99.9 | 99.9 | 100 | 99.9 | 99.1 |  |  |  |  |  |  |  |  | 
Clc1nc(Cl)nc(OCCC[P+](c2ccccc2)(c2ccccc2)c2ccccc2)n1.[Br-] [Example 21] |  |  |  |  |  |  |  |  |  | 99.9 | 99.9 | 93.9 | 99.99 | 99.9 | 98.9 | 99.99 | 99.9 | 96.9
CCCCCCCCCC[n+]1ccc(CCOc2nc(Cl)nc(Br)n2)cc1 [Example 8] | 99.9 | 99.9 | 98.9 | 100 | 99.9 | 99.9 | 100 | 99.9 | 99.5 |  |  |  |  |  |  |  |  | 
C[N+](C)(C)CCNc1nc(Cl)nc(Cl)n1 [Example 3] | 99.9 | 99.9 | 99.9 | 100 | 99.9 | 99.9 | 100 | 99.9 | 99.2 |  |  |  |  |  |  |  |  | 
Clc1nc(Cl)nc(OCCC[P+](c2ccccc2)(c2ccccc2)c2ccccc2)n1 [Example 20] | 99.9 | 99.9 | 92.9 | 100 | 99.9 | 97.9 | 100 | 99.9 | 95.9 |  |  |  |  |  |  |  |  | 
C[N+](C)(CCCS(=O)(=O)[O-])CCOc1nc(Cl)nc(Cl)n1 [Comparative Experiment, reference compound] | 95 | 78 | 69 | 99.9 | 86 | 80 | 99.9 | 83 | 75 |  |  |  |  |  |  |  |  | 
CCCCCCCC[N+](C)(C)CC(C)Oc1nc(Cl)nc(Cl)n1 (stereo not drawn) [Example 6] | 99.9 | 99.9 | 97.9 | 100 | 99.9 | 99.9 | 100 | 99.9 | 99.5 |  |  |  |  |  |  |  |  | 
CCCCCCCCCCCC[N+](C)(C)CCN(CCOc1nc(Cl)nc(Cl)n1)CC[N+](C)(C)CCCCCCCCCCCC [Example 17] | 99.9 | 99.9 | 99.3 | 100 | 99.9 | 99.9 | 100 | 99.9 | 99.5 |  |  |  |  |  |  |  |  | 
C[n+]1ccc(COc2nc(Cl)nc(Cl)n2)cc1 [Example 15] | 99.9 | 99.9 | 92.9 | 100 | 99.9 | 99.1 | 100 | 99.9 | 98.9 |  |  |  |  |  |  |  |  | 
C[n+]1ccc(CNc2nc(Cl)nc([N+](=O)[O-])n2)cc1 [Example 9] | 99.9 | 99.9 | 99.2 | 100 | 99.9 | 99.9 | 100 | 99.9 | 99.9 |  |  |  |  |  |  |  |  | 
CCCCCCCCCCCC[n+]1cc[n+](CCCCCCCCCCCC)c(CCSc2nc(Cl)nc(Cl)n2)c1 [Example 16] | 99.9 | 99.9 | 93.6 | 100 | 99.9 | 99.9 | 100 | 99.9 | 99.8 |  |  |  |  |  |  |  |  | 
C[n+]1ccn(CCCNc2nc(Cl)nc(Cl)n2)c1 [Example 14] | 99.9 | 99.9 | 99.9 | 100 | 99.9 | 99.5 | 100 | 99.9 | 99.1 |  |  |  |  |  |  |  |  | 
Cc1nc(Cl)nc(OCCn2cc[n+](C)c2)n1 [Example 12] | 99.9 | 99.9 | 91.9 | 100 | 99.9 | 99.5 | 100 | 99.9 | 98.9 |  |  |  |  |  |  |  |  | 
C[N+](C)(C)CCCCCCCCCCCCCCCCCCN(CCCCCCCCCCCCCCCCCC[N+](C)(C)C)CCOc1nc(Cl)nc(Cl)n1 [Example 18] | 99.9 | 99.9 | 96.9 | 100 | 99.9 | 98.9 | 100 | 99.9 | 97.9 |  |  |  |  |  |  |  |  | 
